These are literature values, as cited in patent publication US20010022980A1, “Dietary supplement for individuals under stress” (Beth Israel Deaconess Medical Center, priority 1998, published 2001).

The test system of one data set is inflammation. The note with it: rats.
For data set [1] the following is noted: soldiers, 24 g in a sports bar.
The conditions of data set [2]: 20 g per day for five days, 3 g daily for remaining 9 weeks; weight training.
The subject of a further data set is PCr. The note with it: athletes; about 20 g during exercise.
For data set [3] the following is noted: males and females; 20 g per day.
The conditions of data set [4]: 2 to 5 g per day.
A further data set has as its system tetanus toxoid. The note with it: given during 14 days of training (glutamine 14 g).
The test system of the next data set is explicit memory. The conditions noted are these: college students; 25 grams; 90 minutes after ingestion.

`CCCCC/C=C\C/C=C\C/C=C\CCCCC(=O)O` [GLA, γ-linoleic acid]: in the data set on inflammation, the “cellular phase of inflammation (polymorphonuclear leukocyte accumulation, phagocytosis, and lysosomal enzyme activity)” value is given as “suppressed”.
Take `CN(CC(=O)O)C(=N)N.O` [creatine monohydrate]: in data set [1], the “increase in body mass” value is 1.5 kg and the “increase in total repetitions over five sets of bench presses” value is reported as 14.4%. Besides, the “reduction of time to complete an obstacle course” value in data set [1] (not significant) was 7.6 ± 8.2 s. Further, the “decrease in body fat” value in data set [1] (p <0.05) is on record as 0.6%. For the same compound, in data set [2], the “increase in fat free mass” value is given as 4.4%; the “increase in intracellular water” value is listed as 3.2%; the “increase in total body water” value was 5%; the “strength (bench press and squat exercises)” value is recorded as “significant increase”.
As for `CN(CC(=O)O)C(=N)N` [creatine], in the data set with PCr, the “resynthesis of PCr after exercise” value is “rapid resynthesis”. In data set [3], the blood pressure result is “no change”, the body fat result was “no change”, the “lean body mass determined by DEXA” value is reported as “increased” and the plasma creatine kinase result is “no change”. In data set [4], the muscle creatine content entry is listed as “increases”.
`NC(=O)CC[C@H](N)C(=O)O` [glutamine]: the “percentage of soldiers who had an induration >10 mm in response to tetanus toxoid” value in the data set on tetanus toxoid is 50%.
Turning to `NCC(=O)O` [glycine, reference compound], the “percentage of soldiers who had an induration >10 mm in response to tetanus toxoid” value with tetanus toxoid is recorded as 30%.
Consider phosphatidylcholine, for which, in the data set with explicit memory, the “explicit memory (serial learning task)” value was “improve explicit memory”.
